Like-named read-outs stand apart in the source and are kept apart here. Residues, ends and D or L forms follow the SMILES beside them. *: point of attachment. Cbz = O=C(OCc1ccccc1)*; CH2Cl = ClC*
Tests used:
poliovirus type 2 [1] = format: cell-based, human poliomyelitisvirus type 2
rhinovirus type 1A [2] = format: cell-based, human rhinovirus type 1A
chymotrypsin = conditions: inhibitor concentration of 600 µg/mL; cited from earlier work
rhinovirus type 1A [3] = experiment: Plaque inhibition assay; format: cell-based, Human rhinovirus type 1A
subtilisin BPNʹ = conditions: series of peptide chloromethyl ketones; cited from earlier work
poliovirus type 2 [4] = format: cell-based

CC(=O)[C@H](CC(C)C)NC(=O)[C@H](C)NC(=O)CNC(=O)[C@H](Cc1ccccc1)NC(=O)OC(C)(C)C [Boc-Phe-Gly-Ala-LeuCH₃]
activity in the viral cleavage assay (poliovirus type 2 [1]): failed to show activity | activity in the viral cleavage assay (rhinovirus type 1A [2]): failed to show activity

Ac-Leu-Leu-PheCH₃
inhibition of chymotrypsin (chymotrypsin): no inhibition was observed

CC(C)C[C@H](NC(=O)[C@H](CC(C)C)NC(=O)CNC(=O)[C@H](Cc1ccccc1)NC(=O)OCc1ccccc1)C(=O)CCl [Z-Phe-Gly-Leu-LeuCH₂Cl] (Cbz-FGLL-CH2Cl)
Antiviral activity, as scored by 90% plaque reduction, noted at (rhinovirus type 1A [3]; HeLa cells): 1 µg/mL | cytotoxicity first detected at a concentration of (human HeLa-O cells): about 15 µg/mL

COC(=O)CCC(=O)N[C@@H](Cc1ccccc1)C(=O)NCC(=O)N[C@@H](CC(C)C)C(=O)N[C@@H](CC(C)C)C(C)=O [MeOSuc-Phe-Gly-Leu-LeuCH₃]
activity in the viral cleavage assay (poliovirus type 2 [1]; 50 µg/mL): active

acetyl-L-phenylalanyl-L-glycyl-L-alanyl-L-leucyl chloromethyl ketone (Ac-FGAL-CH2Cl; SMILES CC(=O)N[C@@H](Cc1ccccc1)C(=O)NCC(=O)N[C@@H](C)C(=O)N[C@@H](CC(C)C)C(=O)CCl) [Ac-Phe-Gly-Ala-LeuCH₂Cl]
inhibition of subtilisin BPNʹ (rate ranking among the compounds tested) (subtilisin BPNʹ): fastest inhibitor

CC(=O)[C@H](CC(C)C)NC(=O)[C@H](C)NC(=O)CNC(=O)[C@H](Cc1ccccc1)NC(=O)OCc1ccccc1 [Z-Phe-Gly-Ala-LeuCH₃]
activity in the viral cleavage assay (poliovirus type 2 [1]; 50 µg/mL): active | plaque reduction (rhinovirus type 1A [3]; 50 µg/mL in agar overlays, compared to control plates): > 90% | plaque reduction (poliovirus type 2 [4]): > 90% | No cytotoxicity observed at concentrations up to (human HeLa-O cells): > 1 mg/mL
